The source of these data is patent publication US20250318523A1, “Use of Pinenes to Improve Localized Insecticide Injections Targeting Western Drywood Termite (Blattodea: Kalotermitidae)” (THE REGENTS OF THE UNIVERSITY OF CALIFORNIA, priority 2024, published 2025).

For assay [1], the system named is I. minor workers. As to the kind of experiment: Channel arena bioassay. The class given is in vivo, Incisitermes minor. Conditions: after 24 hours; pinene 1.3 μg/cm2 (100 μL of 0.1 mg/mL in methanol); 20 termites, 10 replicates. The source says: (§1) Termites. Western drywood termites, I. minor, were extracted from several pieces of infested wood collected in Riverside, CA. Each colony was stored in a plastic container (30.5 by 21.6 by 6.4 cm) with small pieces of basswood (150 by 100 by 3.2 mm; Midwest Products Co., Inc., Darien, IL) as a food source. A couple of small openings were made on the sides of the containers for ventilation, and the containers were placed within a larger plastic box (40.6 cm by 22.9 cm by 27.9 cm) containing a saturated NaCl solution to maintain 75% relative humidity (RH) within the larger box (Winston and Bates 1960). The stock colony boxes were kept in a growth chamber (Thermo Fisher Scientific, Waltham, MA) at 26° C. without light. […]
To establish the “initial-aggregation zone,” twenty termites were confined to a 5-cm zone at one end of the channel for 24 hours (h) using a cotton plug (FIG. 1). […] After 24 hours (h), the number of termites in the treatment zone was counted under red light (110 lux, Tacklife; Levittown, NY) to minimize any disruption to the termites during observation (Cabrera and Rust 1996). […]
(§2) Statistical Analyses. […] The data were first analyzed with a Kaplan-Meier survival analysis for the insecticide bioassays. […]

Assay [2] concerns I. minor workers. As to the kind of experiment: T-maze bioassay. The note with it: at 24 h; for percent of termites found in the treated choice block (mean±SEM): block treated with 100 μL of 0.1 mg/mL pinene in methanol; for percent of termites found in the untreated choice block (mean±SEM): other block treated with 100 μL of 0.1 mg/mL pinene in methanol. The assay is classed as in vivo, Incisitermes minor. The source says: Termites. Western drywood termites, I. minor, were extracted from several pieces of infested wood collected in Riverside, CA. Each colony was stored in a plastic container (30.5 by 21.6 by 6.4 cm) with small pieces of basswood (150 by 100 by 3.2 mm; Midwest Products Co., Inc., Darien, IL) as a food source. A couple of small openings were made on the sides of the containers for ventilation, and the containers were placed within a larger plastic box (40.6 cm by 22.9 cm by 27.9 cm) containing a saturated NaCl solution to maintain 75% relative humidity (RH) within the larger box (Winston and Bates 1960). The stock colony boxes were kept in a growth chamber (Thermo Fisher Scientific, Waltham, MA) at 26° C. without light. To minimize the chance of using termites that were damaged during the collection process, the collected termites were left undisturbed for at least 7 days (d), and the surviving termites at the end of this period were used in the experiments. One or two different populations were randomly chosen to set up each experimental trial. Only worker termites (approximately 5 mm in length) were used for the experiments.
Chemicals. Two monoterpenes, α-pinene (98%, Sigma-Aldrich, St. Louis, MO) and (−)-β-pinene (>99%, Sigma-Aldrich), were individually tested for their effects on drywood termite behavior. Methanol was used to dissolve the pinenes at 0.1 mg/mL concentration. Clean methanol served as a solvent-only control.
T-maze Bioassay. A T-maze bioassay was developed to study the effects of α- or β-pinene on the choice behavior of I. minor within a simplified termite gallery system. The T-maze consisted of three basswood blocks (2.54 cm by 2.54 cm by 10.16 cm). One block served as a central acclimation block, while the other two served as lateral choice blocks (FIG. 2). All blocks were drilled along the centerline to form longitudinal tunnels (8.9 cm in depth, 0.95 cm in diameter), which ended near the opposite end of the block (about 1.2 cm away from the opposite end of the block). For the acclimation block, a through hole (0.95 cm in diameter) was drilled to add a cross tunnel, perpendicularly intersecting the longitudinal tunnel at its closed end. This cross tunnel provided connection points between the acclimation block and two choice blocks.
Twenty termites from the stock colony were placed in the tunnel of the acclimation block and confined there for 24 hours (h) by sealing the holes with rubber stoppers. Two choice blocks were randomly assigned for treatment (treated block) or no treatment (untreated block). […] After 24 hours, T-mazes were disassembled, and numbers of termites in each of the three blocks (two choice blocks and one acclimation block) were recorded. […]

Assay [3] concerns I. minor workers. As to the kind of experiment: Insecticide bioassay for fipronil (channel arena). The assay is classed as in vivo. The note with it: Incisitermes minor, 336 h; day 14; 10 μL of 0.06% aqueous fipronil suspension on 1.43 cm^2; pinene 100 μL of 0.1 mg/mL in methanol; read-out: final cumulative mortality.
Description: as §1
Insecticide Bioassay. The effect of pinenes on the efficacy of insecticide residue was evaluated using the channel arena bioassay design (FIG. 2). […]
Two different control groups were included in the experimental design: one without insecticide, and the other with insecticide. […] Termites were recorded as dead (no movement) or alive. […]
as §2

Each structure is given as a SMILES string.

Take `C=C1CC[C@H]2C[C@@H]1C2(C)C` [β-pinene, (−)-β-pinene]: the “percent of termites found in the treatment zone (mean±SEM)” value in assay [1] was 58±6.3%. In assay [2], the “percent of termites found in the treated choice block (mean±SEM)” value was 54.5±14.8% and the “percent of termites found in the untreated choice block (mean±SEM)” value is reported as 4.5±3.5%.

On to `CC1=CCC2CC1C2(C)C` (stereo not drawn) [α-pinene], for which, in assay [1], the “percent of termites found in the treatment zone (mean±SEM)” value worked out at 55±9.3%. Also, in assay [2], the “percent of termites found in the treated choice block (mean±SEM)” value turned out to be 45.5±14.1% and the “percent of termites found in the untreated choice block (mean±SEM)” value is recorded as 7.0±7.0%.

For the molecule `N#Cc1nn(-c2c(Cl)cc(C(F)(F)F)cc2Cl)c(N)c1[S+]([O-])C(F)(F)F` (stereo not shown) [fipronil only, fipronil], in assay [3], the mortality (as a rule, the share of the test organisms that died) at 100 µg/mL turned out to be 76.5 ± 5.7%.
